Entries after “also recorded” stand apart in the source; their conditions may differ.
Key:
Jun = test: Transcriptional inhibition assay, Ga14 DBD-Jun TAD luciferase reporter in HeLa cells; format: cell-based; settings: in words
Protocol: Cells were transfected with Firefly (500 ng/mL) and Renilla luciferase (10 ng/mL) plasmids in addition to plasmids encoding the DBD of Ga14 fused to the minimal activation domains of either MLL (250 ng/mL), Jun (100 ng/mL), or ESX (500 ng/mL, 0.1 mL of total transfection solution). Four hours post-transfection cells were treated with increasing concentration of 1b (0→50 μM) as a solution in DMSO such that the final DMSO concentration was 1% (v/v). Percent inhibition is the ratio of fold activation of Jun at each concentration of compound and the fold activation of Jun in a DMSO-treated control. Each bar represents at least three independent experiments with the indicated error (SDOM). For each concentration level of 1b shown in FIG. 5a, the first data column from the left is Jun, the middle column is MLL, and the third column is ESX. (b) MCF-7 cells were treated with 40 μM 1b (as a solution in DMSO such that the final concentration of DMSO was 1% v/v) for 24 h, at which time the cells were lysed and the lysates separated by SDS-PAGE. Western blots were performed using commercial antibodies against GAPDH, Jun, and cyclin D1.
(b) Analogs of 1b tested for MLL and Jun inhibition. (c) Inhibition of Jun with isoxazolidine analogs Inhibition assays were carried out as described in FIG. 5a (SEQ ID NOs:1-4). For each concentration level shown in FIG. 6c, the compound data is shown (from the left) in the following order: 3, 4, 5, 6, 7, 8 and 9.
HeLa cells (10,000 per well) were transfected with a Firefly luciferase reporter (500 ng/mL), and Renilla (10 ng/mL) control plasmid in addition to a plasmid encoding for either the MLL (250 ng/mL) or Jun (100 ng/mL) activation domain fused to the DNA-binding domain of Ga14 in 0.1 mL Optimem. The Optimem was removed and 0.1 mL of DMEM supplemented with 10% FBS and compound was added four hours post-transfection and the luminescence was assessed after 24 h as described above.

MCF-7 cells = test: Cell viability assay (WST-1); format: cell-based; settings: at concentrations ≧50 μM (so in the source)
Protocol: Viability data was acquired after 24 h using a cell-permeable metabolic dye, WST-1 (Roche). Viability data was normalized based on cell viability in the presence of 1% DMSO.
MCF-7 cells (American Tissue Culture Collection) were seeded at 5000 cells per well in a 96 well plate in RPMI media supplemented with 10% fetal bovine serum and allowed to adhere (37° C. and 5% CO2) overnight. Cells were incubated with 1b in DMSO or DMSO alone to a final DMSO concentration of 1% (v/v) for 24 hrs. WST-1 (Roche) was subsequently added to wells and the 96 well plate was incubated for 1 h at 37° C. Absorbance at 440 nm was read on a Tecan GENios Pro plate reader following 1 minute of orbital shaking. Data was corrected for wells containing media+WST-1 without cells. Each value is the average of at least three wells with the indicated error (SDOM).

KIX domain of CBP = biological target: T1, KIX domain of CBP (Mus musculus, UniProt P45481); test: 1H-15N-HSQC binding analysis; settings: 200 μM 15N-His6KIX, 5 eq. compound
T1 construct: the KIX domain, an 87-residue module whose solution structure has been elucidated; made in house
Protocol: The amide chemical shifts that change upon addition of 4 were quantitated were quantified using the equation: Δδ=[Δδ(^1H)^2+0.1Δδ(^15N)^2]^1/2, FIG. 7B bottom.
Uniformly labeled His6KIX protein was expressed and purified as previously described and stored as a lyophilized powder (see, e.g., Buhrlage, 2009). A 200 μM solution of His6KIX was prepared by dissolving the lyophilized protein, in a 9:1 H2O:D2O 10 mM PBS buffer containing 150 mM NaCl at pH 7.2. ^1H-^15N HSQC experiments were recorded at 27° C. on an Avance Bruker 600 MHz NMR spectrometer equipped with a 5 mm cryogenic probe. An HSQC was collected in the absence of isoxazolidine 4 and compared with data recorded in the presence of 5 eq. (1 mM) of 4. Data was processed using NMRPIPE. Chemical shift assignments were based on previously reported data′ and chemical shift analyses with Sparky software were quantified (Δδ=[Δδ(^1H)^2+0.1Δδ(^15N)^2]^1/2).

T1 sequence (P45481 586-665 limits assumed): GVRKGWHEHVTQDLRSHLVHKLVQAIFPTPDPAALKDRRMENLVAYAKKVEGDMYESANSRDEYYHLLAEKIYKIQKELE

Row | Structure (SMILES) | effect on Jun-driven transcription (Jun) | toxicity (MCF-7 cells) | KIX binding by 1H-15N-HSQC (KIX domain of CBP)
1 | CC(C)CN1O[C@@H](CN=[N+]=[N-])C[C@@]1(CCO)CC(C)C (racemic) [isoxazolidine 8] | little activity | – | –
2 | CC(C)CCN1O[C@@H](CN=[N+]=[N-])C[C@@]1(CCO)CC(C)C (racemic) [isoxazolidine 7] | dose-dependent manner; also recorded: enhanced potency | – | –
3 | CC(C)C[C@]1(CCO)C[C@H](CN=[N+]=[N-])ON1Cc1ccc(O)cc1 (racemic) [isoxazolidine 4] | little activity | no measurable toxicity | did not negatively impact KLX binding
4 | CC(C)C[C@]1(CCO)C[C@H](CN=[N+]=[N-])ON1Cc1ccc(F)cc1 (racemic) [isoxazolidine 6] | dose-dependent manner; also recorded: enhanced potency | – | –
5 | CCCN1O[C@@H](CN=[N+]=[N-])C[C@@]1(CCO)CC(C)C (racemic) [isoxazolidine 9] | little activity | – | –

Reference: US20150025045A1, “CBP AND p300-MEDIATED TRANSCRIPTION MODULATORS AND RELATED METHODS” (THE OHIO STATE UNIVERSITY, priority 2011, published 2015)
